Results published in patent US20250144054A1, “SMALL MOLECULE STAT3 INHIBITOR FOR TREATING TRIPLE NEGATIVE BREAST CANCER” (UNIVERSITY OF MARYLAND, BALTIMORE, priority 2022, published 2025).
“And” between values parts separate entries of the source, which are not always exact repeats. Identical values can stand only once.

Tested on: STAT3
Experiment: Western blot of P-STAT3 (Y705), STAT3, Cyclin D1, Cleaved Caspase-3 in MDA-MB-231 cells
Assay type: cell-based, human
Conditions: MDA-MB-231, overnight
Method: (A) MDA-MB-231, SUM159, and 4T1 cell lines were treated with DMSO or LLL12B overnight and the expression levels of P-STAT3 (Y705), STAT3, Cyclin D1, and Cleaved Caspase-3 were analyzed by Western blot. GAPDH served as a protein loading control. (B) MDA-MB-231 cells were treated with DMSO or C188-9 overnight and the expression levels of P-STAT3 (Y705), STAT3, Cyclin D1, and Cleaved Caspase-3 were analyzed by Western blot. (C) MDA-MB-231, SUM159, and 4T1 cells were seeded in a 96-well plate and treated with DMSO or LLL12B for 5 hours and a Caspase-3/7 Fluorescence Assay Kit was used to detect the activation of caspase-3/7. (D) MDA-MB-231, SUM159, and 4T1 cell lines were treated with DMSO or LLL12B for 8-12 hours, and flow cytometry was performed to analyze annexin V and PI staining. The quantification of apoptotic cells was shown in the right panel. ** P<0.01, *** P<0.001 and ****P<0.0001.
SiRNA and transfection. STAT3 siRNA and Negative Control siRNA (Cell Signaling Technology, Danvers, MA, USA) were used to knock down STAT3 in MDA-MB-231, SUM159, and 4T1 cell lines. Cells were transfected with STAT3 siRNA or Negative Control siRNA using Lipofectamine RNAiMAX (Invitrogen, Carlsbad, CA, USA) according to the manufacturer's instructions. After 72 hours, cell viability was examined by MTT cell viability assay, and the transfection efficiency was examined by western blot.
Western blot. Cells were collected and total protein was extracted using cell lysis buffer (Cell Signaling Technology, Danvers, MA, USA). Protein concentration was determined using the Pierce BCA Protein Assay Kit (Thermo Fisher Scientific, Waltham, MA, USA) according to the manufacturer's instructions. Equal amounts of protein were separated by 10% SDS-PAGE gels and transferred to PVDF membranes. Membranes were blocked in 5% non-fat milk at room temperature and probed with specific antibodies P-STAT3 (Y705), STAT3, Cyclin D1, Cleaved Caspase-3, P-STAT1 (Y701), STAT1, P-ERK, ERK or GAPDH (1:1000, Cell Signaling Technology, Danvers, MA, USA) at 4° C. overnight. The blots were visualized using SuperSignal™ West Femto Maximum Sensitivity Substrate (Thermo Fisher Scientific, Waltham, MA, USA) and an Amersham Imager 680 (GE Healthcare Life Sciences, Marlborough, MA, USA) after incubating with horseradish peroxidase (HRP)-conjugated anti-rabbit secondary antibody (1:5000, Cell Signaling Technology, Danvers, MA, USA).

COc1ccc(S(=O)(=O)Nc2cc(-c3c(O)ccc4ccccc34)c(O)c3ccccc23)cc1 [C188-9, reference compound]
concentration that inhibited P-STAT3 and Cyclin D1 in Western blot: 25 µM and 50 µM
